SMILES strings stand for the structures.

One data set concerns the target T1, human KDR enzyme (Homo sapiens, UniProt P35968).
T1 construct: The cytoplasmic domain of the human KDR enzyme was cloned in the form of a GST fusion; GST; made in house; host or cells: SF21 insect cells (baculovirus, pFastBac)
Briefly: phosphorylation of substrate by the KDR enzyme in vitro, scintillation technique. In kind it is biochemical. Conditions: read-out: KDR IC 50. The method, then: The inhibitory effect of the compounds is determined in an assay for phosphorylation of substrate by the KDR enzyme in vitro using a scintillation technique (96-well plate, NEN).
The cytoplasmic domain of the human KDR enzyme was cloned in the form of a GST fusion into the baculovirus expression vector pFastBac. The protein was expressed in SF21 cells and purified to approximately 60% homogeneity.
The kinase activity of KDR is measured in 20 mM MOPS, 10 mM MgCl2, 10 mM MnCl2, 1 mM DTT, 2.5 mM EGTA, 10 mM β-glycerophosphate, pH=7.2, in the presence of 10 mM MgCl2, 100 μM Na3VO4, 1 mM NaF. 10 μl of the compound are added to 70 μl of kinase buffer containing 100 ng of KDR enzyme at 4° C. The reaction is initiated by adding 20 μl of solution containing 2 μg of substrate (SH2-SH3 fragment of PLCγ expressed in the form of a GST fusion protein), 2 μCi γ ^33P[ATP] and 2 μM cold ATP. After incubation at 37° C. for 1 hour, the reaction is stopped by adding 1 volume (100 μl) of 200 mM EDTA. The incubation buffer is removed and the wells are washed three times with 300 μl of PBS. The radioactivity is measured in each well using a Top Count NXT radioactivity counter (Packard).
The background noise is determined by measuring the radioactivity in four different wells containing the radioactive ATP and the substrate alone.
A control for total activity is measured in four different wells containing all the reactants (γ^33P-[ATP], KDR and PLCY substrate) but in the absence of compound.
The inhibition of the KDR activity with the compound of the invention is expressed as percentage inhibition of the control activity determined in the absence of compound.
The compound SU5614 (Calbiochem) (1 μM) is included in each plate as an inhibition control.

Another data set has as its target T2, human Tie2 (Homo sapiens, UniProt Q02763).
T2 construct: corresponding to the intracellular domain amino acids 776-1124 was generated by PCR; made in house; host or cells: baculovirus expression vector pFastBacGT
Briefly: phosphorylation of PLC by Tie2 (GST-Tie2), FlashPlate. The class given is biochemical. Conditions: read-out: TIE2 IC 50. The method, then:
The human Tie2 coding sequence corresponding to the intracellular domain amino acids 776-1124 was generated by PCR using the cDNA isolated from human placenta as a model. This sequence was introduced into a baculovirus expression vector pFastBacGT in the form of a GST fusion protein.
The inhibitory effect of the molecules is determined in an assay for phosphorylation of PLC by Tie2 in the presence of GST-Tie2 purified to approximately 80% homogeneity. The substrate is made up of the SH2-SH3 fragments of PLC expressed in the form of a GST fusion protein.
The kinase activity of Tie2 is measured in a 20 mM MOPS buffer, pH 7.2, containing 10 mM MgCl2, 10 mM MnCl2, 1 mM DTT and 10 mM of glycerophosphate. A reaction mixture made up to 70 μl of kinase buffer containing 100 ng of GST-Tie2 enzyme is deposited into each well of a 96-well FlashPlate kept on ice. 10 μl of the test molecule diluted in DMSO at a maximum concentration of 10% are then added. For a given concentration, each measurement is determined in quadruplicate. The reaction is initiated by adding 20 μl of solution containing 2 μg of GST-PLC, 2 μM of cold ATP and 1 μCi of ^33P [ATP]. After incubation at 37° C. for 1 hour, the reaction is stopped by adding 1 volume (100 μl) of 200 mM EDTA. After the incubation buffer has been removed, the wells are washed three times with 300 μl of PBS. The radioactivity is measured on a Wallac MicroBeta 1450.
The inhibition of the Tie2 activity is calculated and expressed as percentage inhibition with respect to the control activity determined in the absence of compound.

T1 sequence (P35968 786-1356 limits assumed): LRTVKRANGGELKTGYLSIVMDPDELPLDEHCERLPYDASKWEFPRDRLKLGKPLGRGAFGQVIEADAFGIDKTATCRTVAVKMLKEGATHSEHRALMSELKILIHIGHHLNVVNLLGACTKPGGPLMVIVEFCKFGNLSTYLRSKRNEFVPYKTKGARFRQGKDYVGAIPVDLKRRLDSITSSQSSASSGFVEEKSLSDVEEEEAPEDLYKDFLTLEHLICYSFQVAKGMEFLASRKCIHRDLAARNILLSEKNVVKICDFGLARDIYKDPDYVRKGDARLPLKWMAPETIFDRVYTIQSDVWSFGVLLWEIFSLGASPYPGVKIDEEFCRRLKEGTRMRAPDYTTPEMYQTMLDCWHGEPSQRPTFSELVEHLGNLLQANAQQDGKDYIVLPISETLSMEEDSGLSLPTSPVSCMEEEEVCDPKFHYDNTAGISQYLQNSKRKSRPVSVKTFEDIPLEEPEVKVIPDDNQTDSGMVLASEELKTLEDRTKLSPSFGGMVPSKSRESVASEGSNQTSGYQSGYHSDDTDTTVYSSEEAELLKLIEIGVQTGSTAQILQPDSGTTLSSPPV
T2 sequence (Q02763 776-1124): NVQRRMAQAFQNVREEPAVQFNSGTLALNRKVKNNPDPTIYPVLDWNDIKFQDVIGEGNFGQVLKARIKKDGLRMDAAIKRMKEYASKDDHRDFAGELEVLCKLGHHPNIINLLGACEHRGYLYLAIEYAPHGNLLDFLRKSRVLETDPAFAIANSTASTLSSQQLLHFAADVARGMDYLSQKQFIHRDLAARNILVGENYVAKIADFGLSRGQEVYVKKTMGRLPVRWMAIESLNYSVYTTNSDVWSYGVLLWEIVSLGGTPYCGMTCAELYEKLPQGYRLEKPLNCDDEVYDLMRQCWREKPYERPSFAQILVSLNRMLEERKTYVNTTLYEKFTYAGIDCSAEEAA

Regarding `COc1ccc(C(F)(F)F)cc1NC(=O)Nc1ccc(-c2c(C(N)=O)[nH]c3ccccc23)cc1` [Example 12, 3-{4-[3-(2-Methoxy-5-trifluoromethylphenyl)ureido]phenyl}-1H-indole-2-carboxamide], the melting point (usually the temperature, or range, at which the solid turns liquid) is 178 to 180 °C.

Compound `Cc1cc(C)cc(NC(=O)Nc2ccc(-c3c(C(N)=O)[nH]c4ccccc34)cc2)c1` [Example 6, 3-[4-(3,5-Dimethylphenylureido)phenyl]-1H-indole-2-carboxamide] showed a melting point of 168 to 170 °C. For the same compound, the IC50 at human KDR enzyme turned out to be 47 nM. In addition, at human Tie2, the IC50 came out at 16 nM.

`NC(=O)c1[nH]c2ccc[n+]([O-])c2c1-c1ccc(NC(=O)Nc2cc(C(F)(F)F)ccc2F)cc1` [Example 21, 3-{4-[3-(2-Fluoro-5-trifluoromethylphenyl)-ureido]phenyl}-4-oxy-1H-pyrrolo[3,2-b]pyridine-2-carboxamide]: the IC50 was 195 nM at human KDR enzyme and 32 nM at human Tie2.

In the case of `NC(=O)c1[nH]c2c(N)cccc2c1-c1ccc(NC(=O)Nc2cc(C(F)(F)F)ccc2F)cc1` [Example 30, 7-Amino-3-{4-[3-(2-fluoro-5-trifluoromethylphenyl)ureido]phenyl}-1H-indole-2-carboxamide], the IC50 amounted to 31 nM at human KDR enzyme and 7 nM at human Tie2.

Take `NC(=O)c1[nH]c2ccccc2c1-c1ccc(NC(=O)Nc2ccccc2)cc1` [Example 3, 3-[4-(3-Phenylureido)phenyl]-1H-indole-2-carboxamide]: the melting point lay in the range of 232 to 234 °C. In addition, on human KDR enzyme, the IC50 is 1520 nM. For the same compound, on human Tie2, the IC50 stood at 296 nM.

On to `NC(=O)c1[nH]c2ccccc2c1-c1ccc(NS(=O)(=O)c2cccc(Cl)c2Cl)cc1` [Example 14, 3-[4-(2,3-Dichlorobenzenesulfonylamino)-phenyl]-1H-indole-2-carboxamide], for which the melting point is above 260 °C.

On to `CC(C)c1ccc(NC(=O)Nc2ccc(-c3c(C(N)=O)[nH]c4ccccc34)cc2)cc1` [Example 53, 3-{4-[3-(4-Isopropyl-phenyl)ureido]phenyl}-1H-indole-2-carboxamide], for which the IC50 is 153 nM on human KDR enzyme and 151 nM on human Tie2.

Take `NC(=O)c1[nH]c2ccccc2c1-c1ccc(NC(=O)Nc2cc(C(F)(F)F)ccc2F)cc1` [Example 1, 3-{4-[3-(2-Fluoro-5-trifluoromethylphenyl)-ureido]phenyl}-1H-indole-2-carboxamide]: the melting point lay within 240 to 242 °C. Further, on human KDR enzyme, the IC50 came to 35 nM. Besides, the IC50 at human Tie2 turned out to be 3 nM.

Turning to `NC(=O)c1[nH]c2ccccc2c1-c1ccc(NC(=O)Nc2cc(C(F)(F)F)ccc2CN2CCCC2)cc1` [Example 19, 3-{4-[3-(2-Pyrrolidin-1-ylmethyl-5-trifluoromethylphenyl)ureido]phenyl}-1H-indole-2-carboxamide], the IC50 was 1890 nM at human KDR enzyme and 220 nM at human Tie2.

In turn, `Cc1ccc(-n2nc(C(C)(C)C)cc2NC(=O)Nc2ccc(-c3c(C(N)=O)[nH]c4ccccc34)cc2)cc1` [Example 15, 3-{4-[3-(5-tert-Butyl-2-p-tolyl-2H-pyrazol-3-yl)ureido]phenyl}-1H-indole-2-carboxamide] displayed a melting point above 260 °C.

Take `NC(=O)c1[nH]c2ccccc2c1-c1ccc(NC(=O)Nc2ccc(OC(F)F)cc2)cc1` [Example 37, 3-{4-[3-(4-Difluoromethoxy-phenyl)ureido]phenyl}-1H-indole-2-carboxamide]: the IC50 is 199 nM on human KDR enzyme and 291 nM at human Tie2.

In turn, `NC(=O)c1[nH]c2ccccc2c1-c1ccc(NC(=O)Nc2ccccc2F)cc1` [Example 7, 3-[4-(2-Fluorophenylureido)phenyl]-1H-indole-2-carboxamide] showed a melting point of 146 to 148 °C. The IC50 at human KDR enzyme stood at 1750 nM. Moreover, the IC50 at human Tie2 is 142 nM.

For the compound `COCc1ccc(C(F)(F)F)cc1NC(=O)Nc1ccc(-c2c(C(N)=O)[nH]c3ccccc23)cc1` [Example 20, 3-{4-[3-(2-Methoxymethyl-5-trifluoromethylphenyl)ureido]phenyl}-1H-indole-2-carboxamide], the IC50 at human KDR enzyme turned out to be 234 nM; at human Tie2 it was 59 nM.

`NC(=O)c1[nH]c2ccccc2c1-c1ccc(NC(=O)Nc2cccc(C(F)(F)F)c2)cc1` [Example 5, 3-[4-(3-Trifluoromethylphenylureido)phenyl]-1H-indole-2-carboxamide] registered a melting point of 156 to 158 °C. Moreover, the IC50 on human KDR enzyme was found to be 50 nM. In addition, the IC50 on human Tie2 was 6 nM.

`NC(=O)c1[nH]c2ccccc2c1-c1ccc(NC(=O)Nc2ccc(OC(F)(F)F)cc2)cc1` [Example 11, 3-{4-[3-(4-Trifluoromethoxyphenyl)ureido]-phenyl}-1H-indole-2-carboxamide] registered a melting point of 162 to 164 °C. Further, at human KDR enzyme, the IC50 was found to be 153 nM. In addition, the IC50 at human Tie2 was determined as 105 nM.

With `COCCOc1ccc2c(-c3ccc(NC(=O)Nc4cc(C(F)(F)F)ccc4F)cc3)c(C(N)=O)[nH]c2c1` [Example 23, 3-{4-[3-(2-Fluoro-5-trifluoromethylphenyl)-ureido]phenyl}-6-(2-methoxyethoxy)-1H-indole-2-carboxamide], the values for the IC50 at human KDR enzyme and at human Tie2 were 90 nM and 7 nM, respectively.

Regarding `CN(C)CC(=O)Nc1cccc2c(-c3ccc(NC(=O)Nc4cc(C(F)(F)F)ccc4F)cc3)c(C(N)=O)[nH]c12` [Example 32, 7-(2-Dimethylaminoacetylamino)-3-{4-[3-(2-fluoro-5-trifluoromethylphenyl)ureido]phenyl}-1H-indole-2-carboxamide], the IC50 at human KDR enzyme was found to be 144 nM; on human Tie2 it was 28 nM.

As for `NC(=O)c1[nH]c2cccnc2c1-c1ccc(NC(=O)Nc2cc(C(F)(F)F)ccc2F)cc1` [Example 2, 3-{4-[3-(2-Fluoro-5-trifluoromethylphenyl)-ureido]phenyl}-1H-pyrrolo[3,2-b]pyridine-2-carboxamide], the melting point is 206 to 208 °C. Further, the IC50 at human KDR enzyme is 12 nM. Besides, on human Tie2, the IC50 came to 4 nM.

Regarding `NC(=O)c1[nH]c2ccccc2c1-c1ccc(NC(=O)Nc2ccc(C(F)(F)F)c(Cl)c2)cc1` [Example 9, 3-{4-[3-(3-Chloro-4-trifluoromethylphenyl)-ureido]phenyl}-1H-indole-2-carboxamide], the melting point was 168 to 170 °C. Besides, on human KDR enzyme, the IC50 was determined as 138 nM. At human Tie2, the IC50 was 17 nM.

`NC(=O)c1[nH]c2ccccc2c1-c1ccc(NS(=O)(=O)c2cc(C(F)(F)F)ccc2F)cc1` [Example 13, 3-[4-(2-Fluoro-5-trifluoromethylbenzenesulfonylamino)phenyl]-1H-indole-2-carboxamide] registered a melting point of 176 to 178 °C.

In turn, `Cc1cccc(NC(=O)Nc2ccc(-c3c(C(N)=O)[nH]c4ccccc34)cc2)c1` [Example 4, 3-[4-(3-m-Tolylureido)phenyl]-1H-indole-2-carboxamide] yielded a melting point of 140 to 142 °C. Further, the IC50 at human KDR enzyme turned out to be 181 nM. Also, at human Tie2, the IC50 came out at 19 nM.

`Cc1ccc(F)c(NC(=O)Nc2ccc(-c3c(C(N)=O)[nH]c4ccccc34)cc2)c1` [Example 16] gave a melting point of 220 °C.

With `NC(=O)c1[nH]c2c(NCCO)cccc2c1-c1ccc(NC(=O)Nc2cc(C(F)(F)F)ccc2F)cc1` [Example 31, 3-{4-[3-(2-Fluoro-5-trifluoromethylphenyl)-ureido]phenyl}-7-(2-hydroxyethylamino)-1H-indole-2-carboxamide], the IC50 was found to be 75 nM on human KDR enzyme and 6 nM at human Tie2.

(Values after patent publication US7566736B2, “Substituted indoles, compositions containing them, method for the production thereof and their use” (Aventis Pharma S.A., priority 2004, dated 2009).)
